Data on one compound can be found in patent US20050228180A1, “Alpha, omega-dicarboximide derivatives as useful uro-selective a1a adrenoceptor blockers” (priority 2002, published 2005).

pKi: −log10 of the molar value. Structures can show the parent of a compound that is named as a salt.

For assay [1], the system named is conscious beagle dogs. Put plainly: In vivo uroselectivity study: phenylephrine response on MAP and IUP. To be noted: 30 μg/kg p.o. More on the design: species or system dog. From the text: In order to assess the uroselectivity in vivo, the effects of these compounds were studied on mean arterial pressure (MAP) and intraurethral pressure (UP) in conscious beagle dogs as per the method of Brune et al. (Pharmacol., 1996, 53:356). Briefly, male dogs were instrumented for chronic continuous measurement of arterial blood pressure by implanting a telemetry transmitter (TL11M2-D70-PCT, Data Sci. International, St. Paul, Minn. USA) into the femoral artery, two weeks prior to the study. During the recovery period, the animal was acclimatized to stay in the sling restraint. On the day of testing, overnight fasted animal was placed in the sling restraint. A Swan-Ganz. Balloon tipped catheter was introduced into the urethra at the level of prostate and the balloon was inflated (Brune. et. al. 1996). After recording the base line readings, effect of 16 μg/kg, phenylephrine (i.v.) on MAP and IUP was recorded. The response of phenylephrine to MAP and […] were recorded at 0.5, 1, 2, 3, 4, 6, 9 and 24 hours after the oral administration of vehicle or the test drug. The changes in MAP were recorded on line using Dataquest Software (Data Sci. International, St. Paul, Minn. USA). The change in phenylephrine response on […] administration after the test drug administration was calculated as percent change of that of control values. Area under curve was calculated, and the ratio of the values for MAP and IUP was used for calculating the uroselectivity (Table III).

Assay [2] addresses T1, α1A adrenoceptor (prostate) (Rattus norvegicus, UniProt P43140).
T1 construct: from tissue; host or cells: isolated prostate tissue
T1 sequence (P43140 1-466): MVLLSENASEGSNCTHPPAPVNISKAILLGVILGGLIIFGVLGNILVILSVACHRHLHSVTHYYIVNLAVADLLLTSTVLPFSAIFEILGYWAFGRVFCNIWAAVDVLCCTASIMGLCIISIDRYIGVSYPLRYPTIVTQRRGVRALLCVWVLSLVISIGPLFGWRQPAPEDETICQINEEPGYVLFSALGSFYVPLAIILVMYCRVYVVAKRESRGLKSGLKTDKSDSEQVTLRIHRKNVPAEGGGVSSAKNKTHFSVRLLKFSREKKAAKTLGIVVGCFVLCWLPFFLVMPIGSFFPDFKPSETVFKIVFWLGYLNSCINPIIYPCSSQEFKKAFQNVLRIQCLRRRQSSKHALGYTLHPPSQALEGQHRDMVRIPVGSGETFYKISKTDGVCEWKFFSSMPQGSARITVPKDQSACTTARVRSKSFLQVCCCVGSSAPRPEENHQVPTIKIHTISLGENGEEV
Put plainly: In vitro functional assay, isolated prostate, phenylepinephrine contraction. The format is cell-based. The method, boiled down: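 Rat aorta, spleen and prostate strips from urethane-anaesthetised male Wistar rats in Krebs-Henseleit at 37 °C (95% O2/5% CO2), 2 g or 1 g resting tension, 2 h equilibration. Norepinephrine (aorta) or phenylephrine (spleen, prostate) contraction curves run without and with compound at […]; antagonist affinity given as pKB.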

Assay [3] deals with T2, α1B adrenoceptor (Rattus norvegicus, UniProt P15823).
T2 construct: from tissue; host or cells: rat liver membranes
T2 sequence (P15823 1-515): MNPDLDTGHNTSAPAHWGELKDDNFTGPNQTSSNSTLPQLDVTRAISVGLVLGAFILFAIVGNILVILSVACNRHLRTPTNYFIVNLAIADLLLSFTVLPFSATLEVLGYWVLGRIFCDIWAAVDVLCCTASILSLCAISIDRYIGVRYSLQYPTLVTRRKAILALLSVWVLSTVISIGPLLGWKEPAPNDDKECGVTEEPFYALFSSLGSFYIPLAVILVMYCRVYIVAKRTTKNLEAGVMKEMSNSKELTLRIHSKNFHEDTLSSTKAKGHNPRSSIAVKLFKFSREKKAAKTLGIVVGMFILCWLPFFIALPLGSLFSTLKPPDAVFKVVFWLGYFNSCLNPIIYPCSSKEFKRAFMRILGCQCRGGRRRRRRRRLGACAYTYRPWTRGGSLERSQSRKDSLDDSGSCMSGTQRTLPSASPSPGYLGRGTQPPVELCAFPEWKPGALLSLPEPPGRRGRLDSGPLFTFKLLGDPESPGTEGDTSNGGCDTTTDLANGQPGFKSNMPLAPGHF
Put plainly: Radioligand binding, [3H] prazosin displacement, rat liver membranes. To be noted: read-out: Affinity (Ki) α1B (Rat Liver). The method, boiled down: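 Displacement of [3H]prazosin measured by filtration and counting, with Ki from IC50 via Cheng–Prusoff and nonspecific binding set by 300 nM prazosin. Native rat submaxillary (α1A) or liver (α1B) membranes, 150-250 μg protein, 1 h at 24-25° C in Tris/EDTA pH 7.4.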

Setting [4] is: percent change of phenylephrine response over 24 hours.

In the case of `CC(C)Oc1ccccc1N1CCN(CCCN2C(=O)C3CC(O)C(O)CC3C2=O)CC1` (stereo not shown) [Compound No. 23, 2-[3-{4-(2-Isopropoxyphenyl)piperazin-1-yl}propyl]-5,6-dihydroxy-3a,4,5,6,7,7a, hexahydro-1H-isoindole-1,3(2H)-dione-hydrochloride], the “Uroselectivity Ratio IUP/MAP” value in assay [1] came to 5.5. Moreover, in assay [1] (setting [4]), the “Area Under Curve IUP” value stood at 524 and the “Area Under Curve MAP” value was determined as 95. In assay [2] (functional, from pKB), the “Selectivity α1B/α1A” value amounted to 5 and the “Selectivity α1D/α1A” value is on record as 5.6. Also, in assay [2] (rat prostate, phenylepinephrine, read-out: α Adrenoceptor Subtype (pKB) α1A (converted)), the Kb was 1.48 nM. Besides, the pKi in assay [3] is 6.90.
